Measurements from ChEMBL document CHEMBL3044708, “The trifluoromethyl transformation synthesis, crystal structure and insecticidal activities of novel 2-pyrrolecarboxamide and 2-pyrrolecarboxlate” (2012).

Columns and labels:
Assay type in all cases: functional
Tetranychus cinnabarinus [1] = assay: Acaricidal activity against Tetranychus cinnabarinus (carmine spider mite) larvae assessed as mortality at 200 mg/L
Mythimna separata [2] = assay: Insecticidal activity against Mythimna separata (Oriental armyworm) assessed as mortality at 200 mg/L
Tetranychus cinnabarinus [3] = assay: Acaricidal activity against Tetranychus cinnabarinus (carmine spider mite) assessed as mortality at 200 mg/L
Tetranychus cinnabarinus [4] = assay: Acaricidal activity against Tetranychus cinnabarinus (carmine spider mite) eggs assessed as mortality at 200 mg/L; conditions: Egg
Mythimna separata [5] = assay: Insecticidal activity against Mythimna separata (Oriental armyworm) assessed as mortality at 50 mg/L
Mythimna separata [6] = assay: Insecticidal activity against Mythimna separata (Oriental armyworm) assessed as mortality at 100 mg/L
Mythimna separata [7] = assay: Insecticidal activity against Mythimna separata (Oriental armyworm) assessed as mortality at 25 mg/L
Tetranychus cinnabarinus [8] = assay: Acaricidal activity against Tetranychus cinnabarinus (carmine spider mite) eggs assessed as mortality at 100 mg/L; conditions: Egg
Tetranychus cinnabarinus [9] = assay: Acaricidal activity against Tetranychus cinnabarinus (carmine spider mite) assessed as mortality at 100 mg/L
Tetranychus cinnabarinus [10] = assay: Acaricidal activity against Tetranychus cinnabarinus (carmine spider mite) larvae assessed as mortality at 100 mg/L

Row | Structure (SMILES) | mortality at 200 µg/mL (Tetranychus cinnabarinus [1]) [%] | mortality at 200 µg/mL (Mythimna separata [2]) [%] | mortality at 200 µg/mL (Tetranychus cinnabarinus [3]) [%] | mortality at 200 µg/mL (Tetranychus cinnabarinus [4]) [%] | mortality at 50 µg/mL (Mythimna separata [5]) [%] | mortality at 100 µg/mL (Mythimna separata [6]) [%] | mortality at 25 µg/mL (Mythimna separata [7]) [%] | mortality at 100 µg/mL (Tetranychus cinnabarinus [8]) [%] | mortality at 100 µg/mL (Tetranychus cinnabarinus [9]) [%] | mortality at 100 µg/mL (Tetranychus cinnabarinus [10]) [%]
1 | N#Cc1cc(C(=O)Nc2ccc(C(F)(F)F)cc2)[nH]c1-c1ccc(Br)cc1 | 0 | 0 | 0 | 0 | – | – | – | – | – | –
2 | N#Cc1cc(C(=O)Nc2ccc(C(F)(F)F)cc2)[nH]c1-c1ccc(Cl)cc1 | 0 | 0 | 0 | 0 | – | – | – | – | – | –
3 | N#Cc1c(-c2ccc(Cl)cc2)[nH]c(C(=O)Nc2ccc(C(F)(F)F)cc2)c1Br | 0 | 0 | 0 | 0 | – | – | – | – | – | –
4 | N#Cc1c(-c2ccc(Cl)cc2)[nH]c(C(=O)NC2CCCCC2)c1Br | 0 | 80 | 0 | 0 | – | – | – | – | – | –
5 | CCN(CC)C(=O)c1[nH]c(-c2ccc(Cl)cc2)c(C#N)c1Br | 0 | 0 | 0 | 0 | – | – | – | – | – | –
6 | N#Cc1c(-c2ccc(Cl)cc2)[nH]c(C(=O)NCc2ccccc2)c1Br | 0 | 0 | 0 | 0 | – | – | – | – | – | –
7 | COC(=O)c1[nH]c(-c2ccc(Cl)cc2)c(C#N)c1Br | 40 | 100 | 60 | 0 | 40 | 100 | 0 | – | – | –
8 | CCOC(=O)c1[nH]c(-c2ccc(Cl)cc2)c(C#N)c1Br | 76 | 100 | 78 | 81 | 60 | 100 | 0 | 54 | 40 | 52
9 | N#Cc1c(-c2ccc(Cl)cc2)[nH]c(C(=O)OCc2ccccc2)c1Br | 0 | 100 | 0 | 0 | 100 | 100 | 0 | – | – | –
10 | N#Cc1c(-c2ccc(Cl)cc2)[nH]c(C(F)(F)F)c1Br | 100 | 100 | 100 | 100 | 100 | 100 | 100 | 100 | 100 | 100
11 | CCOCn1c(-c2ccc(Cl)cc2)c(C#N)c(Br)c1C(F)(F)F [CHLORFENAPYR] | 100 | 100 | 100 | 100 | 100 | 100 | 100 | 100 | 100 | 100
